Measured values taken from ChEMBL document CHEMBL6071148, “Synthesis and biological evaluation of novel 3,6- amide and thioamide substituted- 2,3,4,9-tetrahydro-1H-carbazoles for anti-cancer activity” (Eur J Med Chem, 2024).

Experiments:
[1] = test system: MCF7; assay: Cytotoxicity against human MCF7 cells assessed as inhibition of cell proliferation incubated for 72 hrs by MTT assay; format: functional, cell-based; settings: MCF7, 72 h
[2] = Cytotoxicity against human MRC5 cells assessed as inhibition of cell proliferation incubated for 72 hrs by MTT assay; format: toxicity, cell-based
[3] = test system: A549; assay: Cytotoxicity against human A549 cells assessed as inhibition of cell proliferation incubated for 72 hrs by MTT assay; format: functional, cell-based; settings: A549, 72 h
[4] = test system: HCT-116; assay: Cytotoxicity against human HCT-116 cells assessed as inhibition of cell proliferation incubated for 72 hrs by MTT assay; format: functional, cell-based; settings: HCT-116, 72 h
[5] = test system: HCT-116; assay: Cytotoxicity against human HCT-116 cells assessed as reduction in cell viability incubated for 48 hrs by MTT assay; format: functional, cell-based; settings: HCT-116, 48 h
[6] = test system: K562; assay: Cytotoxicity against human K562 cells assessed as reduction in cell viability incubated for 48 hrs by MTT assay; format: functional, cell-based; settings: K562, 48 h
[7] = test system: A549; assay: Cytotoxicity against human A549 cells assessed as reduction in cell viability incubated for 48 hrs by MTT assay; format: functional, cell-based; settings: A549, 48 h
[8] = Cytotoxicity against human KB-R cells assessed as reduction in cell viability incubated for 48 hrs by MTT assay; format: functional, cell-based
[9] = Cytotoxicity against human SGC cells assessed as reduction in cell viability incubated for 48 hrs by MTT assay; format: functional, cell-based
[10] = test system: HL-60; assay: Cytotoxicity against human HL-60 cells; format: functional, cell-based

CC(=O)Nc1ccc2[nH]c3c(c2c1)CC(NC(=O)c1ccc(C)s1)CC3 (centres undefined)
IC50 [1]: > 50 µM | IC50 at 72 h [2]: > 50 µM | IC50 [3]: > 50 µM | IC50 [4]: > 50 µM

CCN(CC)C1CCc2c(n(C)c3ccccc23)C1=O (centres undefined)
IC50 [5]: 2.96 µM | IC50 [6]: 17.3 µM | IC50 [7]: 110 µM | IC50 [8]: 118 µM | IC50 [9]: 24.4 µM

CC(=O)Nc1ccc2[nH]c3c(c2c1)CC(NC(=O)c1ccccc1)CC3 (centres undefined)
IC50 [1]: > 50 µM | IC50 at 72 h [2]: > 50 µM | IC50 [3]: > 50 µM | IC50 [4]: > 50 µM

CC[C@]12CCCN3C(=O)C(=O)O[C@@]31c1c([nH]c3ccccc13)CC2
IC50 [10]: > 100 µM
